PubChem BioAssay AID248 (DTP/NCI, 2004)
Inconclusive results and toxic doses are left out. Cut-off read from the data, not from the text of the source: active = T/C of 150% or more; inactive = T/C below 125%.

Tested on: L1210 leukemia ip in BDF1 mice, survival T/C
Experiment: NCI In Vivo Anticancer Drug Screen. Data for tumor model L1210 Leukemia (intraperitoneal) in B6D2F1 (BDF1) mice
Settings: higher = longer survival
Summary of the method: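 Ratio derived from survival: compound-dosed mice over vehicle-dosed mice, all bearing a transplantable tumor.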

[1] = endpoint: mean survival time, dose: 100.0 mg/kg/injection, schedule: Q01DX009 (ip), vehicle: Klucel (hydroxypropylcellulose) (HPC)
[2] = endpoint: mean survival time, dose: 200.0 mg/kg/injection, schedule: Q01DX009 (ip), vehicle: Klucel (hydroxypropylcellulose) (HPC)
[3] = endpoint: mean survival time, dose: 100.0 mg/kg/injection, schedule: Q01DX009 (ip), vehicle: saline with Tween-80
[4] = endpoint: mean survival time, dose: 200.0 mg/kg/injection, schedule: Q01DX009 (ip), vehicle: saline with Tween-80
[5] = endpoint: mean survival time, dose: 400.0 mg/kg/injection, schedule: Q01DX009 (ip), vehicle: saline with Tween-80
[6] = endpoint: mean survival time, dose: 100.0 mg/kg/injection, schedule: Q01DX009 (ip), vehicle: saline
[7] = endpoint: mean survival time, dose: 200.0 mg/kg/injection, schedule: Q01DX009 (ip), vehicle: saline

Measured: T/C

COC(COC(N)=O)C1=C(N2CC2)C(=O)C(C)=C(N2CC2)C1=O (configuration not stated)
inactive: endpoint: mean survival time, dose: 0.03 mg/kg/injection, schedule: Q01DX Z (ip), vehicle: saline 107 % of control | endpoint: mean survival time, dose: 0.06 mg/kg/injection, schedule: Q01DX Z (ip), vehicle: saline 115 % of control | endpoint: mean survival time, dose: 0.12 mg/kg/injection, schedule: Q01DX Z (ip), vehicle: saline 115 % of control | endpoint: mean survival time, dose: 0.25 mg/kg/injection, schedule: Q01DX009 (ip), vehicle: Klucel (hydroxypropylcellulose) (HPC) 113 % of control | endpoint: mean survival time, dose: 1.0 mg/kg/injection, schedule: Q01DX Z (ip), vehicle: saline 90 % of control | endpoint: mean survival time, dose: 2.0 mg/kg/injection, schedule: Q01DX009 (ip), vehicle: Klucel (hydroxypropylcellulose) (HPC) 92 % of control | endpoint: mean survival time, dose: 2.0 mg/kg/injection, schedule: Q04DX003 (ip), vehicle: Klucel (hydroxypropylcellulose) (HPC) 98 % of control | endpoint: mean survival time, dose: 2.0 mg/kg/injection, schedule: Q04DX003 (ip), vehicle: saline 105 % of control | endpoint: mean survival time, dose: 4.0 mg/kg/injection, schedule: Q01DX001 (ip), vehicle: saline with Tween-80 90 % of control | endpoint: median survival time, dose: 0.5 mg/kg/injection, schedule: Q01DX001 (ip), vehicle: saline 100 % of control | endpoint: median survival time, dose: 1.0 mg/kg/injection, schedule: Q01DX001 (ip), vehicle: saline 109 % of control | endpoint: median survival time, dose: 2.0 mg/kg/injection, schedule: Q01DX001 (ip), vehicle: saline 114 % of control
active: endpoint: mean survival time, dose: 0.12 mg/kg/injection, schedule: Q01DX009 (ip), vehicle: Klucel (hydroxypropylcellulose) (HPC) 158 % of control | endpoint: mean survival time, dose: 0.25 mg/kg/injection, schedule: Q01DX Z (ip), vehicle: saline 159 % of control | endpoint: mean survival time, dose: 0.5 mg/kg/injection, schedule: Q01DX009 (ip), vehicle: saline 207 % of control | endpoint: mean survival time, dose: 0.5 mg/kg/injection, schedule: Q01DX Z (ip), vehicle: saline 157 % of control | endpoint: mean survival time, dose: 0.5 mg/kg/injection, schedule: Q04DX003 (ip), vehicle: Klucel (hydroxypropylcellulose) (HPC) 194 % of control | endpoint: mean survival time, dose: 0.5 mg/kg/injection, schedule: Q04DX003 (ip), vehicle: saline 172 % of control | endpoint: mean survival time, dose: 0.5 mg/kg/injection, schedule: Q08DX002 (ip), vehicle: saline 160 % of control | endpoint: mean survival time, dose: 1.0 mg/kg/injection, schedule: Q01DX001 (ip), vehicle: saline with Tween-80 166 % of control | endpoint: mean survival time, dose: 1.0 mg/kg/injection, schedule: Q01DX001 (ip), vehicle: saline 171 % of control | endpoint: mean survival time, dose: 1.0 mg/kg/injection, schedule: Q01DX009 (ip), vehicle: saline 201 % of control | endpoint: mean survival time, dose: 1.0 mg/kg/injection, schedule: Q04DX003 (ip), vehicle: saline 188 % of control | endpoint: mean survival time, dose: 1.0 mg/kg/injection, schedule: Q08DX002 (ip), vehicle: saline 233 % of control | endpoint: mean survival time, dose: 2.0 mg/kg/injection, schedule: Q01DX001 (ip), vehicle: saline with Tween-80 288 % of control | endpoint: mean survival time, dose: 2.0 mg/kg/injection, schedule: Q01DX001 (ip), vehicle: saline 360 % of control | endpoint: mean survival time, dose: 2.0 mg/kg/injection, schedule: Q08DX002 (ip), vehicle: saline 159 % of control

CN(C)c1ccc(N=Nc2cccc(Cl)c2)cc1
inactive: [1] 97 % of control | [2] 97 % of control | endpoint: mean survival time, dose: 400.0 mg/kg/injection, schedule: Q01DX009 (ip), vehicle: Klucel (hydroxypropylcellulose) (HPC) 90 % of control

CC(C)=CC(=O)Nc1cccc(O)c1
inactive: [3] 96 % of control | [4] 91 % of control | [5] 92 % of control

CCS(=O)(=O)CS(=O)(=O)C(C)(C)C
inactive: endpoint: mean survival time, dose: 100.0 mg/kg/injection, schedule: Q01DX001 (ip), vehicle: Klucel (hydroxypropylcellulose) (HPC) 98 % of control | endpoint: mean survival time, dose: 200.0 mg/kg/injection, schedule: Q01DX001 (ip), vehicle: Klucel (hydroxypropylcellulose) (HPC) 91 % of control | endpoint: mean survival time, dose: 400.0 mg/kg/injection, schedule: Q01DX001 (ip), vehicle: Klucel (hydroxypropylcellulose) (HPC) 94 % of control

O=C(CCl)OC1CCCCC1
inactive: [3] 105 % of control | [4] 97 % of control

COc1ccc(N2C(=O)CCC2=O)cc1
inactive: [3] 107 % of control | endpoint: mean survival time, dose: 100.0 mg/kg/injection, schedule: Q04DX003 (ip), vehicle: saline with Tween-80 106 % of control | [4] 95 % of control | endpoint: mean survival time, dose: 200.0 mg/kg/injection, schedule: Q04DX003 (ip), vehicle: saline with Tween-80 92 % of control | [5] 98 % of control | endpoint: mean survival time, dose: 400.0 mg/kg/injection, schedule: Q04DX003 (ip), vehicle: saline with Tween-80 111 % of control

CCCS(=O)(=O)N1CCCCCC1
inactive: endpoint: mean survival time, dose: 100.0 mg/kg/injection, schedule: Q04DX002 (ip), vehicle: saline with Tween-80 92 % of control | endpoint: mean survival time, dose: 200.0 mg/kg/injection, schedule: Q04DX002 (ip), vehicle: saline with Tween-80 92 % of control | endpoint: mean survival time, dose: 400.0 mg/kg/injection, schedule: Q04DX002 (ip), vehicle: saline with Tween-80 92 % of control

NC(N)=N/N=C/c1ccc([N+](=O)[O-])cc1
inactive: endpoint: mean survival time, dose: 15.0 mg/kg/injection, schedule: Q01DX Z (ip), vehicle: saline 95 % of control | endpoint: mean survival time, dose: 30.0 mg/kg/injection, schedule: Q01DX Z (ip), vehicle: saline 95 % of control | endpoint: mean survival time, dose: 30.0 mg/kg/injection, schedule: Q01DX Z (oral), vehicle: other 104 % of control | endpoint: mean survival time, dose: 60.0 mg/kg/injection, schedule: Q01DX Z (ip), vehicle: saline 90 % of control | endpoint: mean survival time, dose: 60.0 mg/kg/injection, schedule: Q01DX Z (oral), vehicle: other 100 % of control | endpoint: mean survival time, dose: 120.0 mg/kg/injection, schedule: Q01DX Z (oral), vehicle: other 88 % of control

CN(C)C(=O)C1Cc2ccccc2CC1C(=O)N(C)C (configuration not stated)
inactive: endpoint: mean survival time, dose: 50.0 mg/kg/injection, schedule: Q01DX009 (ip), vehicle: Klucel (hydroxypropylcellulose) (HPC) 97 % of control | [1] 97 % of control | endpoint: mean survival time, dose: 100.0 mg/kg/injection, schedule: Q04DX003 (ip), vehicle: Klucel (hydroxypropylcellulose) (HPC) 101 % of control | [2] 101 % of control | endpoint: mean survival time, dose: 200.0 mg/kg/injection, schedule: Q04DX003 (ip), vehicle: Klucel (hydroxypropylcellulose) (HPC) 102 % of control | endpoint: mean survival time, dose: 400.0 mg/kg/injection, schedule: Q04DX003 (ip), vehicle: Klucel (hydroxypropylcellulose) (HPC) 97 % of control

O=c1[nH]c2ccccc2o1
inactive: endpoint: mean survival time, dose: 75.0 mg/kg/injection, schedule: Q01DX001 (ip), vehicle: Klucel (hydroxypropylcellulose) (HPC) 101 % of control | endpoint: mean survival time, dose: 150.0 mg/kg/injection, schedule: Q01DX001 (ip), vehicle: Klucel (hydroxypropylcellulose) (HPC) 100 % of control | endpoint: mean survival time, dose: 200.0 mg/kg/injection, schedule: Q04DX002 (ip), vehicle: saline 92 % of control | endpoint: mean survival time, dose: 300.0 mg/kg/injection, schedule: Q01DX001 (ip), vehicle: Klucel (hydroxypropylcellulose) (HPC) 103 % of control | endpoint: mean survival time, dose: 400.0 mg/kg/injection, schedule: Q04DX002 (ip), vehicle: saline 114 % of control

CC(=O)OC1CCC(NC(=O)NCCCl)CC1 (configuration not stated)
inactive: endpoint: mean survival time, dose: 100.0 mg/kg/injection, schedule: Q01DX001 (ip), vehicle: other 96 % of control | endpoint: mean survival time, dose: 200.0 mg/kg/injection, schedule: Q01DX001 (ip), vehicle: other 98 % of control | endpoint: mean survival time, dose: 400.0 mg/kg/injection, schedule: Q01DX001 (ip), vehicle: other 88 % of control

CC1(C)C(C)(C)C1(Cl)Cl
inactive: [6] 100 % of control | endpoint: mean survival time, dose: 100.0 mg/kg/injection, schedule: Q04DX003 (sc), vehicle: olive oil, sesame oil, peanut oil 112 % of control | [7] 100 % of control | endpoint: mean survival time, dose: 200.0 mg/kg/injection, schedule: Q04DX003 (sc), vehicle: olive oil, sesame oil, peanut oil 96 % of control | endpoint: mean survival time, dose: 400.0 mg/kg/injection, schedule: Q01DX009 (ip), vehicle: saline 100 % of control | endpoint: mean survival time, dose: 400.0 mg/kg/injection, schedule: Q04DX003 (sc), vehicle: olive oil, sesame oil, peanut oil 107 % of control

CC(C)OC(=O)Nc1ccncc1
inactive: endpoint: mean survival time, dose: 3.13 mg/kg/injection, schedule: Q01DX009 (ip), vehicle: saline with Tween-80 93 % of control | endpoint: mean survival time, dose: 6.25 mg/kg/injection, schedule: Q01DX009 (ip), vehicle: saline with Tween-80 97 % of control | endpoint: mean survival time, dose: 6.25 mg/kg/injection, schedule: Q04DX002 (ip), vehicle: saline with Tween-80 110 % of control | endpoint: mean survival time, dose: 12.5 mg/kg/injection, schedule: Q01DX009 (ip), vehicle: saline with Tween-80 101 % of control | endpoint: mean survival time, dose: 12.5 mg/kg/injection, schedule: Q04DX002 (ip), vehicle: saline with Tween-80 96 % of control

C1OCOCO1
inactive: endpoint: mean survival time, dose: 25.0 mg/kg/injection, schedule: Q01DX009 (ip), vehicle: saline 92 % of control | endpoint: mean survival time, dose: 50.0 mg/kg/injection, schedule: Q01DX009 (ip), vehicle: saline 97 % of control | [6] 95 % of control | [7] 97 % of control
